Values of other authors, collected in patent US9428458B2, “Substituted pyridoxine-lactam carboxylate-salts” (ALCOBRA LTD., priority 2008, dated 2016).

Details: ca. 900 mg daily dose administered intravenously

For “pyridoxine L-2-pyrrolidone-5-carboxylate [metadoxine]”, which “side effects associated with the use of metadoxine” value is on record?
Its value is “nausea and vomiting”.
